Molecular target: T1, BRD4 (Homo sapiens, UniProt O60885)
T1 construct: His-tagged BRD4-BD1 (bromodomain 1)
Assay: TR-FRET (HTRF) displacement of biotin-labeled peptide ligand from BRD4-BD1; single dose, […]
Type: biochemical
Conditions: read-out: Inhibition Rate / 10 μM

Compound | inhibition at 10 µM
O=C1CC[C@]2(O)c3c(ccc(O)c31)-c1ccc(O)c3c1C2[C@@H](O)[C@@H](Cl)[C@H]3O (stereo partly drawn) [compound 1, 12β-Chloro-3,9α,11β,13β,16-pentahydroxy-8,9,10,11,12,13-hexahydro-6(7H)-one] | 57.7%
O=C1C=Cc2c3c4c(c(O)ccc4c4ccc(O)c1c24)[C@H](O)[C@H](O)[C@H]3O [compound 2, 3,11α,12β,13β,16-Pentahydroxy-11,12-dihydroperylen-6(13H)-one] | 88.1%
